Tested on: IFNα-induced pSTAT5 (pY694) in CD3 positive cells of human whole blood
Experiment: IFNα-Induced STAT Phosphorylation in Human Whole Blood
Assay type: cell-based
Conditions: 1 h compound incubation, 1000 U/mL recombinant human IFNα A/D for 15 min, pSTAT5 in CD3 positive population, read-out: Human WB IFNα-Induced Stat Phosph. (IC50)
How it was run: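 Read-out is median fluorescence intensity of pSTAT5 (pY694) in the CD3-positive gate, by flow cytometry after fix/lyse and permeabilization. Before that, whole human blood anticoagulated with EDTA or ACD-A received compound for an hour and 1000 U/mL IFNα A/D for 15 min.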

Row | IC50 | Structure (SMILES)
1 | 3.12 µM | [2H]C([2H])([2H])NC(=O)c1nnc(NC(=O)C2CC2)cc1Nc1cccc(-c2cnn(CCNC(C)=O)c2)c1OC [Example 563, 4-((3-(1-(2-acetamidoethyl)-1H-pyrazol-4-yl)-2-methoxyphenyl)amino)-6-(cyclopropanecarboxamido)-N-(methyl-d3)pyridazine-3-carboxamide]

Same assay, conditions: Homo sapiens, 1 h compound incubation, 1000 U/mL recombinant human IFNα A/D for 15 min, pSTAT5 in CD3 positive population, read-out: Human WB IFNα-Induced Stat Phosph. (IC50)

Row | IC50 | Structure (SMILES)
2 | 1.13 µM | [2H]C([2H])([2H])NC(=O)c1nnc(NC(=O)C2CC2)cc1Nc1cccc(-c2nc([C@@H](NC(C)=O)[C@@H](C)O)no2)c1OC [Example 187]
3 | > 10 µM | [2H]C([2H])([2H])NC(=O)c1nnc(NC(=O)C2CC2)cc1Nc1cccc(-c2nc(-c3ccccc3)no2)c1OC [Example 123]
4 | 0.83 µM | [2H]C([2H])([2H])NC(=O)c1nnc(NC(=O)C2CC2)cc1Nc1cccc(-c2cnn(CCNC(=O)CC#N)c2)c1OC [Example 559]
5 | 2.41 µM | [2H]C([2H])([2H])NC(=O)c1nnc(NC(=O)C2CC2)cc1Nc1cccc(-c2cnn(CCNC(=O)C3(C#N)CC3)n2)c1OC [Example 437]
6 | 2.24 µM | [2H]C([2H])([2H])NC(=O)c1nnc(NC(=O)C2CC2)cc1Nc1cccc(-c2ncc(CC(=O)NCC(O)CO)s2)c1OC (stereo not drawn) [Example 248]
7 | > 10 µM | COc1c(Nc2cc(NC(=O)C3CC3)nnc2C)cccc1-c1ncn(C)n1 [Example 409, N-(5-((2-methoxy-3-(1-methyl-1H-1,2,4-triazol-3-yl)phenyl)amino)-6-methylpyridazin-3-yl)cyclopropanecarboxamide]
8 | 0.09 µM | COc1c(Nc2cc(NC(=O)C3CC3)nnc2C(N)=O)cccc1-c1ncc(CC(=O)N(C)C)s1 [Example 243]
9 | 0.011 µM | [2H]C([2H])([2H])NC(=O)c1cnc(NC(=O)C2CC2)cc1Nc1cccc(-c2noc(CN(C)S(C)(=O)=O)n2)c1OC [Example 94]
10 | 0.009 µM | COc1c(Nc2cc(NC(=O)C3CC3)nnc2C(N)=O)cccc1-c1noc(CN(C)S(C)(=O)=O)n1 [Example 44]
11 | 0.24 µM | [2H]C([2H])([2H])NC(=O)c1nnc(NC(=O)C2CC2)cc1Nc1cc(F)cc(-c2ncc(C(=O)N(C)C)s2)c1OC [Example 277]
12 | 0.83 µM | [2H]C([2H])([2H])NC(=O)c1nnc(NC(=O)C2CC2)cc1Nc1cccc(-c2ncc(CNC(=O)COC)s2)c1OC [Example 263]
13 | 0.69 µM | [2H]C([2H])([2H])NC(=O)c1nnc(NC(=O)C2CC2)cc1Nc1cccc(-c2nc(CN(C)C(=O)CC#N)no2)c1OC [Example 171]
14 | 0.09 µM | [2H]C([2H])([2H])NC(=O)c1nnc(NC(=O)C2CC2)cc1Nc1cccc(-c2ncc(C(=O)N3CC(C)(O)C3)s2)c1OC [Example 346]
15 | 0.07 µM | [2H]C([2H])([2H])NC(=O)c1nnc(Nc2ccc(C)nn2)cc1Nc1cccc(-c2nc(CN3CCOCC3)no2)c1OC [Example 237]
16 | 0.69 µM | [2H]C([2H])([2H])NC(=O)c1nnc(NC(=O)C2CC2)cc1Nc1cccc(-c2nc(C(=O)N(C)C)cs2)c1OC [Example 276]
17 | 0.025 µM | COc1c(Nc2cc(NC(=O)C3CC3)nnc2C(N)=O)cccc1-c1noc(CCS(C)(=O)=O)n1 [Example 71]
18 | 0.05 µM | [2H]C([2H])([2H])NC(=O)c1cnc(Nc2ccc(OC)nn2)cc1Nc1cc(F)cc(-c2cc(C(=O)N(C)C)n(C)n2)c1OC [Example 551]
19 | 0.21 µM | [2H]C([2H])([2H])NC(=O)c1nnc(NC(=O)C2CC2)cc1Nc1cccc(-c2nc(CN3CCOCC3)no2)c1OC [Example 124]
20 | 0.12 µM | COc1c(Nc2cc(NC(=O)C3CC3)nnc2C(N)=O)cccc1-c1ncc(CC(=O)N2CCOCC2)s1 [Example 244]
21 | 0.09 µM | COc1c(Nc2cc(NC(=O)C3CC3)nnc2C(N)=O)cccc1-c1ncc(C(=O)NC2CCC(N(C)C)CC2)s1 (stereo not drawn) [Example 405]
22 | 0.15 µM | [2H]C([2H])([2H])NC(=O)c1nnc(NC(=O)C2CC2)cc1Nc1cccc(-c2ncc(C(C)(C)O)s2)c1OC [Example 267]
23 | 2.21 µM | [2H]C([2H])([2H])NC(=O)c1nnc(NC(=O)C2CC2)cc1Nc1cccc(-c2cnn(CCNS(C)(=O)=O)c2)c1OC [Example 560]
24 | 1.01 µM | [2H]C([2H])([2H])NC(=O)c1nnc(NC(=O)C2CC2)cc1Nc1cccc(-c2noc(CN3CCN(C(=O)OC(C)(C)C)CC3)n2)c1OC [Example 34]
25 | 0.022 µM | [2H]C([2H])([2H])NC(=O)c1nnc(NC(=O)C2CC2)cc1Nc1cccc(-c2ncc(C(=O)N3CCC(N(C)C)CC3)s2)c1OC [Example 315]
26 | 0.77 µM | [2H]C([2H])([2H])NC(=O)c1nnc(NC(=O)C2CC2)cc1Nc1cccc(-c2cc(C(=O)NCC)n(C)n2)c1OC [Example 457]
27 | 0.03 µM | COc1c(Nc2cc(NC(=O)C3CC3)nnc2C(N)=O)cccc1-c1ncc(C(=O)N(C)C)s1 [Example 246]
28 | 0.014 µM | [2H]C([2H])([2H])NC(=O)c1nnc(NC(=O)C2CC2)cc1Nc1cccc(-c2ncc(C(=O)NCCC3CCCN3C)s2)c1OC (stereo not drawn) [Example 299]

Row | IC50 | Structure (SMILES)
29 | 0.22 µM | [2H]C([2H])([2H])NC(=O)c1nnc(Nc2ccc(OCC)nn2)cc1Nc1cc(F)cc(-c2cc(C(C)(C)O)n(C)n2)c1OC [Example 545]
30 | 2.8 µM | [2H]C([2H])([2H])NC(=O)c1nnc(NC(=O)C2CC2)cc1Nc1cccc(-n2cc(CN3CCS(=O)(=O)CC3)nn2)c1OC [Example 1, 6-(cyclopropanecarboxamido)-4-((3-(4-((1,1-dioxidothiomorpholino)methyl)-1H-1,2,3-triazol-1-yl)-2-methoxyphenyl)amino)-N-(trideuteromethyl)pyridazine-3-carboxamide]
31 | 0.24 µM | [2H]C([2H])([2H])NC(=O)c1nnc(NC(=O)C2CC2)cc1Nc1cccc(-c2nc(C)c(C(=O)N3CCNC(=O)C3)s2)c1OC [Example 363]
32 | 0.024 µM | COc1c(Nc2cc(NC(=O)C3CC3)nnc2C(N)=O)cccc1-c1noc(CNS(=O)(=O)c2ccccc2)n1 [Example 13]
33 | 0.1 µM | [2H]C([2H])([2H])NC(=O)c1cnc(NC(=O)C2CC2)cc1Nc1cccc(-c2ncc(C(C)(C)O)s2)c1OC [Example 270]
34 | 0.68 µM | [2H]C([2H])([2H])NC(=O)c1nnc(NC(=O)C2CC2)cc1Nc1cccc(-c2ncc(CNC(C)=O)s2)c1OC [Example 261]
35 | 0.015 µM | [2H]C([2H])([2H])NC(=O)c1cnc(NC(=O)C2CC2)cc1Nc1cccc(-c2noc(CN3CCOCC3)n2)c1OC [Example 96]
36 | 0.47 µM | [2H]C([2H])([2H])NC(=O)c1nnc(NC(=O)C2CC2)cc1Nc1cccc(-c2cc(C(=O)N3CNCC(=O)C3)n(C)n2)c1OC [Example 532]
37 | 0.78 µM | [2H]C([2H])([2H])NC(=O)c1nnc(NC(=O)C2CC2)cc1Nc1cccc(-c2nc(CNC(=O)CN)no2)c1OC [Example 155]
38 | 0.62 µM | [2H]C([2H])([2H])NC(=O)c1nnc(NC(=O)C2CC2)cc1Nc1cccc(-c2ncc(C(=O)N3CCN(S(=O)(=O)C=C)CC3)s2)c1OC [Example 241]
39 | 0.12 µM | [2H]C([2H])([2H])NC(=O)c1nnc(NC(=O)C2CC2)cc1Nc1cccc(-c2cc(C(=O)N(C)CC)n(C)n2)c1OC [Example 539]
40 | 0.4 µM | [2H]C([2H])([2H])NC(=O)c1nnc(NC(=O)C2CC2)cc1Nc1cccc(-c2nc(CN3C[C@@H](C)O[C@@H](C)C3)no2)c1OC [Example 158]
41 | 5.31 µM | [2H]C([2H])([2H])NC(=O)c1nnc(NC(=O)C2CC2)cc1Nc1cccc(-c2nc(CNC(=O)OC(C)(C)C)no2)c1OC [Example 142]
42 | 0.03 µM | [2H]C([2H])([2H])NC(=O)c1cnc(NC(=O)C2CC2)cc1Nc1cccc(-c2noc(COC(C)C)n2)c1OC [Example 89]
43 | 0.42 µM | [2H]C([2H])([2H])NC(=O)c1nnc(NC(=O)C2CC2)cc1Nc1cccc(-c2ccn(CCNS(C)(=O)=O)n2)c1OC [Example 466]
44 | 0.23 µM | [2H]C([2H])([2H])NC(=O)c1nnc(NC(=O)C2CC2)cc1Nc1cccc(-c2noc(C(CCC)C(=O)N3CCOCC3)n2)c1OC (stereo not drawn) [Example 42]
45 | 0.48 µM | [2H]C([2H])([2H])NC(=O)c1nnc(NC(=O)C2CC2)cc1Nc1cccc(-c2nc(CN3CCC(O)CC3)no2)c1OC [Example 207]
46 | 0.021 µM | [2H]C([2H])([2H])NC(=O)c1nnc(NC(=O)C2CC2)cc1Nc1cccc(-c2ncc(C(=O)N3CCN(S(=O)(=O)CC)CC3)s2)c1OC [Example 242]
47 | 0.06 µM | [2H]C([2H])([2H])NC(=O)c1cnc(NC(=O)C2CC2)cc1Nc1cccc(-c2nc(CN3CCOCC3)no2)c1OC [Example 125]
48 | 0.11 µM | [2H]C([2H])([2H])NC(=O)c1nnc(NC(=O)C2CC2)cc1Nc1cccc(-c2ncc(C(=O)NCCCN3CCN(C(C)C)CC3)s2)c1OC [Example 341]
49 | 0.05 µM | [2H]C([2H])([2H])NC(=O)c1nnc(NC(=O)C2CC2)cc1Nc1cccc(-c2cnc(C(=O)N(C)C)s2)c1OC [Example 239, 5-(3-((6-(cyclopropanecarboxamido)-3-((methyl-d3)carbamoyl)pyridazin-4-yl)amino)-2-methoxyphenyl)-N,N-dimethylthiazole-2-carboxamide]
50 | 0.26 µM | [2H]C([2H])([2H])NC(=O)c1nnc(NC(=O)C2CC2)cc1Nc1cccc(-c2cnn(CCNC(=O)CC#N)n2)c1OC [Example 435]
51 | 1.59 µM | [2H]C([2H])([2H])NC(=O)c1nnc(NC(=O)C2CC2)cc1Nc1cccc(-c2ccn(CC(=O)NCCOC)n2)c1OC [Example 471]
52 | 0.2 µM | [2H]C([2H])([2H])NC(=O)c1nnc(NC(=O)C2CC2)cc1Nc1cccc(-c2nc(CN3CCS(=O)(=O)CC3)no2)c1OC [Example 164]
53 | 0.88 µM | [2H]C([2H])([2H])NC(=O)c1nnc(NC(=O)C2CC2)cc1Nc1cccc(-c2nc(C(OCC)OCC)no2)c1OC [Example 224]
54 | 1.16 µM | [2H]C([2H])([2H])NC(=O)c1nnc(NC(=O)C2CC2)cc1Nc1cccc(-c2nc(CCOC(C)(C)C)no2)c1OC [Example 226]

— patent publication US12240840B2, “Amide-substituted heterocyclic compounds for the treatment of conditions related to the modulation of IL-12, IL-23 and/or IFN-alpha” (BRISTOL-MYERS SQUIBB COMPANY, priority 2018, dated 2025)
